Structures can show the parent of a compound that is named as a salt. Where two headings read alike, the source gives them in different places.
Tests used:
[1] = target: 5-HT2C receptor; test: [3H] 5-HT binding assay, 5-HT2C receptor; settings: Ki=IC50/(1+[L]/[Kd]), read-out: Binding test Ki, 5-HT2C receptor
Procedure: (§1) The 5-HT2C and 5-HT2A receptors: Carried out by [^3 H] 5-HT binding assay in accordance with the method of A. Pazos et al., Eur. J. Pharmacol., 106, 539-546 (1985) or S. Havlik and S. J. Peroutka, Brain Res., 584, 191-196 (1992).
(§2) Using the above method, a drug concentration which inhibits 50% of receptor binding of ligand (IC50 value) was calculated, and a Ki value which represents affinity for the receptor was obtained by the following formula.
(§3) ([L]: ligand concentration, [Kd]: dissociation constant)

[2] = target: 5-HT2A receptor (Homo sapiens, UniProt P28223); test: biochemical; type: binding
Sequence of 5-HT2A receptor (P28223 whole entry): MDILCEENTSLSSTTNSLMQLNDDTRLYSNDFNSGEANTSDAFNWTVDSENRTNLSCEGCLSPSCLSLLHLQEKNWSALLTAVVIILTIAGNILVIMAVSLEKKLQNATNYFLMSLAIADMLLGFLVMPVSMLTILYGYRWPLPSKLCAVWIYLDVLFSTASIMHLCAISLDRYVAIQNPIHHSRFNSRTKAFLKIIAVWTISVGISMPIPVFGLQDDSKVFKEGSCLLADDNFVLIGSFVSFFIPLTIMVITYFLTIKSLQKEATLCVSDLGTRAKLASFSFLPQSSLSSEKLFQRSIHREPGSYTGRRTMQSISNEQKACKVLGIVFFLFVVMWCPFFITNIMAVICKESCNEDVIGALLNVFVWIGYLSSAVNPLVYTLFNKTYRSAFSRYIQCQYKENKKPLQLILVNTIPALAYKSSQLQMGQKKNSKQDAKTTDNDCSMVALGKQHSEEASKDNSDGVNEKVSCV
Procedure: as §1, §2, §3

Compound | Ki [1] [nM] | Ki ([2]; [3H] 5-HT binding, Ki=IC50/(1+[L]/[Kd]), read-out: Binding test Ki, 5-HT2A receptor) [nM] | Ki [2] [nM]
COc1nn(C[C@H](C)N)c2c1ccc1occc12 [Example 37, (S)-2-(3-Methoxy-1H-furo[2,3-g]indazol-1-yl)-1-methylethylamine fumarate] | 0.5 | 8.7 | 
NCCn1ncc2ccc3sc(Br)cc3c21 [Example 20, 2-(7-Bromo-1H-thieno[2,3-g]indazol-1-yl)ethylamine hydrochloride] | 0.8 |  | 18
CCc1nn(CCN)c2c1ccc1occc12 [Example 55, 2-(3-Ethyl-1H-furo[2,3-g]indazol-1-yl)ethylamine dihydrochloride] | 4.1 |  | 50

From US6245796A, “Tricyclic pyrrole or pyrazole derivative” (priority 1997, dated 2001)
